Marks after values point to notes of the source that are not given here.
Test system: New Zealand Albino rabbits
Experiment: Intraocular pressure by applanation pneumatonometry after topical application to one eye
Type: in vivo
Conditions: 0.1% (w/v) solution, 25 µl to the surface of one eye
Procedure: Prostaglandin F2α TRIS salt was dissolved in either distilled water or in a 5% aqueous hydroxypropyl-β-cyclodextrin solution, to provide 0.1% (w/v) solutions. Two groups of experimental New Zealand Albino rabbits, containing 6 and 8 rabbits, respectively, were treated by administering 25µℓ of each solution to the surface of one eye. The contralateral eye received vehicle as a control. Intraocular pressure (IOP) was measured by applanation pneumatonometry model (Model 3ORT, manufactured by Digilab) at the time of administration, and at intervals of 1, 2, 3, 4, and 6 hours thereafter.

Prostaglandin F2α TRIS salt [Prostaglandin F2α (in aqueous)]
CHANGES IN INTRAOCULAR PRESSURE (mmHg) AT PREDETERMINED TIMES (HR) (1.0 HR after administration): -6.3* mmHg
CHANGES IN INTRAOCULAR PRESSURE (mmHg) AT PREDETERMINED TIMES (HR) (2.0 HR after administration): -3.0 mmHg
CHANGES IN INTRAOCULAR PRESSURE (mmHg) AT PREDETERMINED TIMES (HR) (3.0 HR after administration): -3.0 mmHg
CHANGES IN INTRAOCULAR PRESSURE (mmHg) AT PREDETERMINED TIMES (HR) (4.0 HR after administration): -1.5 mmHg
CHANGES IN INTRAOCULAR PRESSURE (mmHg) AT PREDETERMINED TIMES (HR) (6.0 HR after administration): 0 mmHg

From EP0435682A2, “The use of inclusion complexes of prostaglandins with cyclodextrins in the treatment of ocular hypertension” (ALLERGAN, INC., priority 1989, dated 1991)
